Results taken from patent US20230381157A1, “RIFABUTIN FOR THE TREATMENT OF ACINETOBACTER BAUMANNII” (University of Southern California, priority 2018, published 2023).
Values after ≈ are worked out from the molar mass of the structure shown. Values joined by “and” are separate entries in the source; they are usually repeats but may differ in a detail not shown here. Equal values may be shown once. Read-outs that look alike come from different tables or passages of the source.

Columns and labels:
A. baumannii [1] = assay: MIC, broth microdilution, A. baumannii clinical isolates / strain panel; format: cell-based, Acinetobacter baumannii; details: Acinetobacter baumannii; for MIC: read-out: MIC; for MIC50 / MIC90: A. baumannii strain panel; for MIC50: read-out: MIC50; for MIC90: read-out: MIC90
A. baumannii HUMC1 [2] = assay: MIC, broth microdilution in MHII, RPMI or modified media; format: cell-based, Acinetobacter baumannii
K. pneumonia = assay: MIC, broth microdilution; format: cell-based; details: Klebsiella pneumoniae, read-out: MIC
A. baumannii ATCC 17978 = assay: IC50 dose response, inhibition of bacterial growth (BacTiter-Glo viability); format: cell-based, Acinetobacter baumannii; details: Acinetobacter baumannii, 11-point dose response, read-out: IC50
S. aureus LAC [3] = assay: microbe, parasite or virus in culture; format: cell-based; details: Staphylococcus aureus, read-out: MIC
HEK293T = assay: Specificity: mammalian cell cytotoxicity / inhibition of bacteria growth (CC50/IC50)
Acinetobacter baumannii = assay: Galleria mellonella infection model; format: in vivo; details: Galleria mellonella; doses as high as 5 mg/kg
A. baumannii HUMC1 [4] = assay: IC50 dose response, inhibition of bacterial growth (BacTiter-Glo viability); format: cell-based, Acinetobacter baumannii; details: Acinetobacter baumannii, 11-point dose response, read-out: IC50
A. baumannii HUMC1 [5] = format: in vivo, mouse
A. baumannii HUMC1 [6] = format: in vivo, mouse; remark: listed apart in the source
E. coli JJ1886 = format: cell-based, Escherichia coli; details: TSA
A. baumannii [7] = format: cell-based, Acinetobacter baumannii
S. aureus LAC [8] = format: cell-based, Staphylococcus aureus; details: TSA
E. coli = assay: MIC, broth microdilution; format: cell-based; details: Escherichia coli, E. coli JJ1886

CO[C@H]1/C=C/O[C@@]2(C)Oc3c(C)c(O)c4c(O)c(c(/C=N/N5CCN(C)CC5)c(O)c4c3C2=O)NC(=O)/C(C)=C\C=C\[C@H](C)[C@H](O)[C@@H](C)[C@@H](O)[C@@H](C)[C@H](OC(C)=O)[C@@H]1C [rifampin]
MIC (A. baumannii [1]; A. baumannii (strain not named), MHII): 4 µg/mL (≈ 4.86 µM)
MIC (A. baumannii [1]; A. baumannii (strain not named), RPMI with serum): 4 µg/mL (≈ 4.86 µM)
MIC (A. baumannii [1]; A. baumannii VA-AB21, MHII): 3.12 µg/mL (≈ 3.8 µM)
MIC (A. baumannii [1]; A. baumannii VA-AB21, RPMI): > 6.12 µg/mL
MIC50 (A. baumannii [1]; CAMHB): 3.13 µg/mL (≈ 3.8 µM)
MIC90 (A. baumannii [1]; CAMHB): 6.25 µg/mL (≈ 7.59 µM)
MIC50 (A. baumannii [1]; RPMI): 12.5 µg/mL (≈ 15.2 µM)
MIC90 (A. baumannii [1]; RPMI): 25 µg/mL (≈ 30.4 µM)
MIC (A. baumannii [1]; ATCC17978, A. baumannii ATCC17978 and HUMC1, MHII): 2 µg/mL (≈ 2.43 µM)
MIC (A. baumannii [1]; ATCC17978, A. baumannii ATCC17978 and HUMC1, RPMI): 8 µg/mL (≈ 9.72 µM)
MIC (A. baumannii HUMC1 [2]; Acinetobacter baumannii, HUMC1, HUMC1, 0.01% Triton X-100, read-out: MIC): 2 µg/mL (≈ 2.43 µM)
MIC (A. baumannii HUMC1 [2]; Acinetobacter baumannii, HUMC1, HUMC1, 0.05% Tween 20, MHII, read-out: MIC): 2 µg/mL (≈ 2.43 µM)
MIC (A. baumannii HUMC1 [2]; Acinetobacter baumannii, HUMC1, HUMC1, 25° C., MHII, read-out: MIC): 2 µg/mL (≈ 2.43 µM)
MIC (A. baumannii HUMC1 [2]; Acinetobacter baumannii, HUMC1, HUMC1, 25° C., RPMI, read-out: MIC): 2 µg/mL (≈ 2.43 µM)
MIC (A. baumannii HUMC1 [2]; Acinetobacter baumannii, HUMC1, HUMC1, MHII (CAMHB), read-out: MIC): 4 µg/mL (≈ 4.86 µM)
MIC (A. baumannii HUMC1 [2]; Acinetobacter baumannii, HUMC1, HUMC1, RPMI + Essential Amino Acid Solution (50×), read-out: MIC): 6.25 µg/mL
MIC (A. baumannii HUMC1 [2]; Acinetobacter baumannii, HUMC1, HUMC1, RPMI + L-Histidine 0.5 mM): 12.5 µg/mL
MIC (A. baumannii HUMC1 [2]; Acinetobacter baumannii, HUMC1, HUMC1, RPMI + L-Tryptophan 0.125 mM): 12.5 µg/mL
difference in MICs at lower temperature (A. baumannii HUMC1 [2]; HUMC1, 25° C. or 30° C. compared to 37° C., MHII or RPMI): did not observe any difference
MIC (A. baumannii HUMC1 [2]; HUMC1, MHII (CAMHB in b45)): 3.125 µg/mL (≈ 3.8 µM)
MIC (A. baumannii HUMC1 [2]; HUMC1, MHII (CAMHB in b45), listed as Rifampin): 3.125 µg/mL (≈ 3.8 µM)
MIC (A. baumannii HUMC1 [2]; HUMC1, MHII (CAMHB), listed as RIF): 2 µg/mL and 3.125 µg/mL
MIC (A. baumannii HUMC1 [2]; HUMC1, RPMI): 3.125 µg/mL (≈ 3.8 µM)
MIC (A. baumannii HUMC1 [2]; HUMC1, RPMI, listed as Rifampin): 3.125 µg/mL (≈ 3.8 µM)
MIC (K. pneumonia; K. pneumonia KP-3, MHII): 3.12 µg/mL (≈ 3.8 µM)
MIC (K. pneumonia; K. pneumonia KP-3, RPMI): 1.56 µg/mL (≈ 1.9 µM)
MIC (K. pneumonia; K. pneumonia KPC-KP1, MHII): 25 µg/mL (≈ 30.4 µM)
MIC (K. pneumonia; K. pneumonia KPC-KP1, RPMI): 50 µg/mL (≈ 60.8 µM)
IC50 (A. baumannii ATCC 17978; ATCC17978, 24 h, ATCC 17978, RPMI + 50% Serum): 18.2 µM
IC50 (A. baumannii ATCC 17978; ATCC17978, ATCC 17978, RPMI + 50% Serum): 18.2 µM
IC50 (A. baumannii ATCC 17978; ATCC17978, ATCC 17978, RPMI): 13.8 µM
MIC (S. aureus LAC [3]; MHII): 0.025 µg/mL (≈ 0.0304 µM)
MIC (S. aureus LAC [3]; RPMI): 0.05 µg/mL (≈ 0.0608 µM)
Specificity HEK293T (CC50/IC50) (HEK293T; IC50 vs A. baumannii ATCC 17978, RPMI + 50% serum): 2.741
Specificity HEK293T (CC50/IC50) (HEK293T; IC50 vs A. baumannii ATCC 17978, RPMI alone): 3.621
Specificity HEK293T (CC50/IC50) (HEK293T; IC50 vs A. baumannii HUMC1, RPMI + 50% serum): 6.256
Specificity HEK293T (CC50/IC50) (HEK293T; IC50 vs A. baumannii HUMC1, RPMI alone): 4.538
protection (Acinetobacter baumannii): only a partial protection
IC50 (A. baumannii HUMC1 [4]; HUMC1, 24 h, HUMC1, RPMI + 50% Serum): 7.99 µM
IC50 (A. baumannii HUMC1 [4]; HUMC1, HUMC1, RPMI + 50% Serum): 7.99 µM
IC50 (A. baumannii HUMC1 [4]; HUMC1, HUMC1, RPMI): 11 µM
protection at minimum dose test (A. baumannii HUMC1 [5]; IV infection, RIF 10 or 30 mg/kg/daily for 3 days): only partially protective
survival (A. baumannii HUMC1 [5]; bacteremia model, 10 mg/kg for 3 days, 2 days post infection, PBS/control 0%): about 50%
protection (A. baumannii HUMC1 [5]; murine bacteremia, 10 mg/kg): 50%
survival (A. baumannii HUMC1 [6]; 5 mg/kg for 3 days, 2 days post infection): < 20%
survival (A. baumannii HUMC1 [6]; 5 mg/kg/daily for 3 days, oral gavage): did not protect from mortality
survival (A. baumannii HUMC1 [6]; 5 mg/kg/daily for 3 days, oral gavage, listed as RFP): did not improve survival vs. control
survival (A. baumannii HUMC1 [6]; 5 mg/kg/daily for 3 days, oral gavage, listed as RIF): did not do any better as compared to the PBS control group
lung CFUs (A. baumannii HUMC1 [6]; 5 mg/kg/daily for 3 days, oral gavage, lungs at 24 hrs post infection): did not reduce CFUs compared to control
bacterial burden (A. baumannii HUMC1 [6]; murine pneumonia, 5 mg/kg, day 7 post-infection): ~6.5 Log10(CFU/mg lung)
Mutation Frequency (E. coli JJ1886): 2.21E−08
Mutation Frequency (A. baumannii [7]; A. baumannii ABNIH1, MHII): 4.17E−08
Mutation Frequency (A. baumannii [7]; A. baumannii ATCC17978, MHII): 5.14E−09
Mutation Frequency (A. baumannii [7]; A. baumannii ATCC17978, TSA): 7.95E−09
Mutation Frequency (A. baumannii [7]; A. baumannii HUMC1, MHII): 9.19E−09
Mutation Frequency (A. baumannii [7]; A. baumannii HUMC1, TSA): 1.44E−08
Mutation Frequency (A. baumannii [7]; A. baumannii LAC-4, MHII): 2.62E−08
Mutation Frequency (S. aureus LAC [8]): 9.49E−08
MIC (E. coli; MHII): 6.25 µg/mL (≈ 7.59 µM)
MIC (E. coli; RPMI): 25 µg/mL (≈ 30.4 µM)
